Experimental data taken from PubChem BioAssay (NCI).
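Following 48 hours of exposure in 96-well plates, responses at five concentrations were used to interpolate endpoints linearly. TGI: concentration producing complete growth inhibition.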

What was measured:
Experiment in all cases: inhibition of tumour cell growth, NCI panel, 48 h
HOP-92 NSCLC = test system: HOP-92 NSCLC
MDA-MB-231 breast = test system: MDA-MB-231 breast
SK-MEL-5 melanoma = test system: SK-MEL-5 melanoma
NCI-H226 lung = test system: NCI-H226 lung
HS 578T breast = test system: HS 578T breast
MDA-N = test system: MDA-N
HL-60(TB) leukemia = test system: HL-60(TB) leukemia
K-562 leukemia = test system: K-562 leukemia
IGROV1 ovarian = test system: IGROV1 ovarian
SW-620 colon = test system: SW-620 colon
SNB-75 CNS = test system: SNB-75 CNS
NCI-H460 lung = test system: NCI-H460 lung
RXF 393 renal = test system: RXF 393 renal
SK-MEL-28 melanoma = test system: SK-MEL-28 melanoma
MDA-MB-435 = test system: MDA-MB-435
MCF7 breast = test system: MCF7 breast
UACC-62 melanoma = test system: UACC-62 melanoma
ACHN renal = test system: ACHN renal

Measured: TGI

O=c1[nH]cnc2c1ncn2C1SC(CO)C(O)C1O (stereo unspecified)
> 100 µM: all assays above

CCOC(=O)NC(C(C(=O)OCC)C(=O)OCC)(C(F)(F)F)C(F)(F)F
> 100 µM: all assays above
